Results reported in patent publication US20260308149A1, “NOVEL CARBOXAMIDE DERIVATIVES” (ANGELINI PHARMA S.P.A., priority 2023, published 2026).

target: T1, human Kv7.2 (Homo sapiens, UniProt O43526); assay: activation (potentiation) of Kv7.2 current, SyncroPatch 384 electrophysiology in CHO cells stably expressing human Kv7.2; assay type: cell-based; settings: human Kv7.2 in CHO cells; in presence of 5.6 μM zinc pyrithione; % activation relative to 30 μM ML-213
T1 construct: expressed in transfected cells
Experimental: The potency of Kv7 potentiators was determined using the SyncroPatch 384 (Nanion) high throughput electrophysiology platform.
CHO cells stably expressing either human Kv7.2, Kv7.4 or Kv7.5/7.3 under a constitutive CMV promoter were used for these studies. Cells were maintained in F12 Hams+1 mM L-glutamine (Hyclone) supplemented with 10% FBS (Sigma), 0.3×NEAA (Non-essential Gamino-acids) and 400 ug/ml G418 at 37° C. in 5% CO2. Cells were cultured in T-225 flasks (Nunc) for 2-3 days to reach 85-95% confluence prior to electrophysiological recording.
Earle's balanced salt solution (in mM): 135 NaCl, 5.4 KCl, 5 Glucose, 2 CaCl2), 1 MgCl2, 5 HEPES, pH 7.4. Seal enhancer solution (in mM): 90 NaCl, 3 KCl, 35 CaCl2), 10 MgCl2, 10 HEPES, pH 7.4. Extracellular recording solution (in mM): 71 NaCl, 70 NMDG, 13 KCl. 5 Glucose, 2 CaCl2, 1 MgCl2, 10 HEPES, pH 7.4. Intracellular recording solution (in mM): 130 KF, 20 KCl, 4 EGTA, 10 HEPES, 2 EDTA, 0.01 Escin, pH 7.2.
Cells were harvested for electrophysiological recording upon reaching appropriate confluence. Cells were first washed in DPBS (Hyclone, Cat #SH30028.03) and then 2 ml of Accutase (MP Biomedicals #1000449) was added at 28° C. until ~90% of cells were suspended. F12 HAM's media+1 mM L-glutamine (Hyclone, SH30026.02) was then added to the flask to dilute the accutase. Cells were then triturated until a single cell suspension was achieved, a cell count was performed, and cells were centrifuged for 2 min. at 1,000 rpm. Media was then aspirated, and cells were resuspended in Earle's balanced salt solution to a concentration of 0.75×10^6 cells/ml and allowed to recover for 25 min at 10° C.
At the beginning of each assay, 20 μl of cell suspension was dispensed into each well of a multi-hole 384-well SyncroPatch chip by the onboard pipettor. Cell sealing was initiated, and seal enhancer solution was added to facilitate seal formation. Upon completion of sealing, cells were washed 3 times with extracellular recording solution and the assay voltage protocol was started. Human Kv7.2, Kv7.4 or Kv7.5/7.3 channels were evaluated using a voltage protocol in which cells were voltage-clamped at a holding potential of −60 mV. Potassium currents were continuously activated with a series of three voltage steps to −30 mV for 3 seconds, 40 mV for 1 second and −90 mV for 4 seconds with 12 seconds between successive voltage sweeps. Potassium currents were measured from the −90 mV repolarizing step. Baseline current was assessed for 3.5 minutes prior to the addition of 5.6 μM zinc pyrithione (1 μM for Kv7.4). Kv7.2, Kv7.4 or Kv7.5/7.3 current in the presence of zinc pyrithione was acquired over five minutes to allow channels to reach steady state activity prior to addition of test agents. Channel activity was monitored for three minutes preceding the addition of 30 μM ML-213 (3 minutes) to achieve maximum activation. 150 mM TEA with 10 μM XE-991 was applied for 2 minutes to measure the leak current during maximum inhibition of Kv7.2, Kv7.4 or Kv7.5/7.3 channels.
Data were collected on the SyncroPatch platform using PatchControl software (Nanion) and processed and analyzed using DataControl Software (Nanion). Percent activation was calculated from potassium current as follows: The average current for the 5 sweeps in the presence of zinc pyrithione immediately preceding test agent addition was taken as the ‘control’ data. Likewise, the average potassium current in the presence of test agents 5 sweeps immediately preceding addition of 30 μM ML-213 was determined for ‘drug’ data. The average potassium current 5 sweeps immediately prior to addition of 150 mM TEA+10 μM XE-991 was determined for ‘max activation’ data while average currents from 5 sweeps immediately following addition of TEA was determined for ‘max inhibition’ data. Percent activation for each of the 384-wells of a sealchip was calculated as ((‘drug’−‘max inhibition’)/(‘max activation’−‘max inhibition’))*100 with Pipeline Pilot (Accelrys). […]

T1 sequence (O43526 whole entry): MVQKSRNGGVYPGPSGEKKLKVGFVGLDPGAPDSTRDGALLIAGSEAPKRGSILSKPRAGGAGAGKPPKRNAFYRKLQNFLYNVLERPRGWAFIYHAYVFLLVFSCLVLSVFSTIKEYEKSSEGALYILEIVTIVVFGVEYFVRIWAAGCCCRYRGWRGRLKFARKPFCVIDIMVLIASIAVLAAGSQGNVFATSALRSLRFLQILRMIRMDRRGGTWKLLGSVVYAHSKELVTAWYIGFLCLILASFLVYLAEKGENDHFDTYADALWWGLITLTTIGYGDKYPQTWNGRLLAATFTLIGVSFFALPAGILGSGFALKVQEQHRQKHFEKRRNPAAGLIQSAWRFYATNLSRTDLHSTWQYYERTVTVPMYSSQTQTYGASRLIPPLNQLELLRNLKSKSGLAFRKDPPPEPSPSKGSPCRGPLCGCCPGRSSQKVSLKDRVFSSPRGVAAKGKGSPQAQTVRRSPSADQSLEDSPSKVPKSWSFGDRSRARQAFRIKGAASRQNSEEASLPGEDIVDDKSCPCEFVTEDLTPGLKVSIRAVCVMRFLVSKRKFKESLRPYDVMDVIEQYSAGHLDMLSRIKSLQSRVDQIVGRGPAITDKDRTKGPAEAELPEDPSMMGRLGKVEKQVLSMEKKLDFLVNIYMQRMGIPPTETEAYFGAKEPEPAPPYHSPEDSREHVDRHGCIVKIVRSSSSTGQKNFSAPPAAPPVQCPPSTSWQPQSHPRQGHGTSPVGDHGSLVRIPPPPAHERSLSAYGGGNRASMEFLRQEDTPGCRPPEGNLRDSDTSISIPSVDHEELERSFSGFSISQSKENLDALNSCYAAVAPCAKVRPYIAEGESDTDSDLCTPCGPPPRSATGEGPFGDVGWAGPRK

EC50 | SMILES
0.05 µM | O=C(NC[C@@]1(c2cccc(Cl)c2)OCC1(F)F)[C@H]1C[C@@H]1c1ccccc1 (stereo in doubt) [Example 41, (1S,2S)-N-[[(2R)-2-(3-chlorophenyl)-3,3-difluoro-oxetan-2-yl]methyl]-2-phenyl-cyclopropanecarboxamide]
0.63 µM | O=C(NC[C@]1(c2cccc(Cl)c2)OCC1(F)F)[C@H]1C[C@@H]1c1ccccc1 (stereo in doubt) [Example 42, (1S,2S)-N-[[(2S)-2-(3-chlorophenyl)-3,3-difluoro-oxetan-2-yl]methyl]-2-phenyl-cyclopropanecarboxamide]
0.39 µM | O=C(NCC1(c2ccnc(OC(F)F)c2)CCO1)[C@H]1CC12CCCCC2 (stereo in doubt) [Example 122, N-[[2-[2-(difluoromethoxy)-4-pyridyl]oxetan-2-yl]methyl]spiro[2.5]octane-2-carboxamide]
0.06 µM | CO[C@@](C)(CNC(=O)[C@H]1C[C@@H]1c1ccccc1)c1cccc(Cl)c1 [Example 2, (1S,2S)-N-[(2R)-2-(3-chlorophenyl)-2-methoxy-propyl]-2-phenyl-cyclopropanecarboxamide]
2.34 µM | COC(C)(CNC(=O)NC1CCCC1)c1cccc(Cl)c1 (centres unmarked) [Example 3, 1-[2-(3-chlorophenyl)-2-methoxy-propyl]-3-cyclopentyl-urea]
0.5 µM | COC(CNC(=O)NC1CC2CCC1C2)c1cccc(Cl)c1 (centres unmarked) [Example 4, 1-[2-(3-chlorophenyl)-2-methoxy-ethyl]-3-norbornan-2-yl-urea]
2.41 µM | COC(C)(CNC(=O)Nc1cccc(C)c1)c1cccc(Cl)c1 (centres unmarked) [Example 6, 1-[2-(3-chlorophenyl)-2-methoxy-propyl]-3-(m-tolyl)urea]
1.43 µM | COC(C)(CNC(=O)NCc1cccc(C)c1)c1cccc(Cl)c1 (centres unmarked) [Example 11, 1-[2-(3-chlorophenyl)-2-methoxy-propyl]-3-(m-tolylmethyl)urea]
4.58 µM | O=C(NCC(OC1CC1)c1cccc(Cl)c1)NC1CCCC1 (centres unmarked) [Example 18, 1-[2-(3-chlorophenyl)-2-(cyclopropoxy)ethyl]-3-cyclopentyl-urea]
0.62 µM | COC(C)(CNC(=O)CC1CCCCC1)c1cccc(Cl)c1 (centres unmarked) [Example 19, N-[2-(3-chlorophenyl)-2-methoxy-propyl]-2-cyclohexyl-acetamide]
2.92 µM | CC(C)OC(CNC(=O)NC1CCCC1)c1cccc(Br)c1 (centres unmarked) [Example 24, 1-[2-(3-bromophenyl)-2-isopropoxy-ethyl]-3-cyclopentyl-urea]
4.01 µM | [2H]C([2H])([2H])OC(C)(CNC(=O)NC1CCCC1)c1cccc(Cl)c1 (centres unmarked) [Example 26, 1-[2-(3-chlorophenyl)-2-(trideuteriomethoxy)propyl]-3-cyclopentyl-urea]
3.27 µM | COc1cccc(NC(=O)NCC2(c3cccc(C)c3)OCCO2)c1 [Example 27, 1-(3-methoxyphenyl)-3-[[2-(m-tolyl)-1,3-dioxolan-2-yl]methyl]urea]
1.98 µM | COC(C)(CNC(=O)NCCCc1ccccc1)c1cccc(Cl)c1 (centres unmarked) [Example 32, 1-[2-(3-chlorophenyl)-2-methoxy-propyl]-3-(3-phenylpropyl)urea]
1.58 µM | COC(CNC(=O)Cc1cccc2ccccc12)c1ccccc1Cl (centres unmarked) [Example 36, N-[2-(2-chlorophenyl)-2-methoxy-ethyl]-2-(1-naphthyl)acetamide]

Further lines, the compound ahead of its results:

SMILES | EC50
COC(C)(CNC(=O)NCC1CCCC1)c1cccc(Cl)c1 (single isomer, unassigned) [Example 71] | 0.53 µM
COc1cccc(NC(=O)NCC(C)(OC)c2cccc(Cl)c2)c1 (centres unmarked) [Example 5, 1-[2-(3-chlorophenyl)-2-methoxy-propyl]-3-(3-methoxyphenyl)urea] | 1.04 µM
O=C(NCC1(c2cccc(Cl)c2)CC1)NC1CCCC1 [Example 7, 1-[[1-(3-chlorophenyl)cyclopropyl]meth-yl]-3-cyclopentyl-urea] | 2.72 µM
CCCCNC(=O)NCC(C)(OC)c1cccc(Cl)c1 (centres unmarked) [Example 8, 1-butyl-3-[2-(3-chlorophenyl)-2-methoxy-propyl]urea] | 3.65 µM
COC(C)(CNC(=O)NCc1ccco1)c1cccc(Cl)c1 (centres unmarked) [Example 9, 1-[2-(3-chlorophenyl)-2-methoxy-propyl]-3-(2-furylmethyl)urea] | 2.46 µM
COC(C)(CNC(=O)NCc1cccc(F)c1)c1cccc(Cl)c1 (centres unmarked) [Example 10, 1-[2-(3-chlorophenyl)-2-methoxy-propyl]-3-[(3-fluorophenyl)methyl]urea] | 0.76 µM
O=C(NCC1(c2cccc(Cl)c2)CC1)NC1COC2(CCCC2)C1 (centres unmarked) [Example 12, 1-[[1-(3-chlorophenyl)cyclopropyl]meth-yl]-3-(1-oxaspiro[4.4]nonan-3-yl)urea] | 2.92 µM
COC(C)(CNC(=O)NC1COC2(CCCC2)C1)c1cccc(Cl)c1 (centres unmarked) [Example 13, 1-[2-(3-chlorophenyl)-2-methoxy-propyl]-3-(1-oxaspiro[4.4]nonan-3-yl)urea] | 3.55 µM
CCOc1cccc(NC(=O)NCC(C)(OC)c2cccc(Cl)c2)c1 (centres unmarked) [Example 14, 1-[2-(3-chlorophenyl)-2-methoxy-propyl]-3-(3-ethoxyphenyl)urea] | 0.6 µM
O=C(NCC1CCCCO1)NCC1(c2cccc(Cl)c2)CC1 (centres unmarked) [Example 15, 1-[[1-(3-chlorophenyl)cyclopropyl]meth-yl]-3-(tetrahydropyran-2-ylmethyl)urea] | 6.92 µM
CO[C@@](C)(CNC(=O)NC1CCCC1)c1cccc(Cl)c1 [Example 16, 1-[(2R)-2-(3-chlorophenyl)-2-methoxy-propyl]-3-cyclopentyl-urea] | 2.87 µM
COc1cccc(NC(=O)NC[C@](C)(OC)c2cccc(Cl)c2)c1 [Example 17, 1-[(2R)-2-(3-chlorophenyl)-2-methoxy-propyl]-3-(3-methoxyphenyl)urea] | 1.67 µM
COC(C)(CNC(=O)NCC1CCCC1)c1cccc(Cl)c1 (centres unmarked) [Example 21, 1-[2-(3-chlorophenyl)-2-methoxy-propyl]-3-(cyclopentylmethyl)urea] | 0.55 µM
COC(CNC(=O)Nc1cccc(C)c1)c1cccc(Cl)c1 (centres unmarked) [Example 22, 1-[2-(3-chlorophenyl)-2-methoxy-ethyl]-3-(m-tolyl)urea] | 1.99 µM
COC(C)(CNC(=O)NCC1CC1)c1cccc(Cl)c1 (centres unmarked) [Example 23, 1-[2-(3-chlorophenyl)-2-methoxy-propyl]-3-(cyclopropylmethyl)urea] | 8.2 µM
CCOC(CNC(=O)NC1CCCC1)c1cccc(Br)c1 (centres unmarked) [Example 28, 1-[2-(3-bromophenyl)-2-ethoxy-ethyl]-3-cyclopentyl-urea] | 2.58 µM
COC(C)(CNC(=O)Nc1cccc(OC(F)(F)F)c1)c1cccc(Cl)c1 (centres unmarked) [Example 29, 1-[2-(3-chlorophenyl)-2-methoxy-propyl]-3-[3-(trifluoromethoxy)phenyl]urea] | 5.69 µM
COC(C)(CNC(=O)NC1CC=CC1)c1cccc(Cl)c1 (centres unmarked) [Example 30, 1-[2-(3-chlorophenyl)-2-methoxy-propyl]-3-cyclopent-3-en-1-yl-urea] | 3.27 µM
COC(C)(CNC(=O)NCc1cccs1)c1cccc(Cl)c1 (centres unmarked) [Example 33, 1-[2-(3-chlorophenyl)-2-methoxy-propyl]-3-(2-thienylmethyl)urea] | 1.86 µM
COc1ccc(CCNC(=O)NCC(C)(OC)c2cccc(Cl)c2)cc1 (centres unmarked) [Example 34, 1-[2-(3-chlorophenyl)-2-methoxy-propyl]-3-[2-(4-methoxyphenyl)ethyl]urea] | 3.94 µM
